Data published in patent US10112935B2, “Indazolyl thiadiazolamines and related compounds for inhibition of Rho-associated protein kinase and the treatment of disease” (Lycera Corporation, priority 2015, dated 2018).

Assays:
[1] = molecular target: GST-tagged human ROCK1 catalytic domain 1-477 (Homo sapiens (Human), UniProt Q13464); experiment: Inhibition of Rho-associated protein kinase isoform 1 (LANCE Ultra ULight-CREBtide FRET kinase assay); assay type: biochemical; conditions: 30 μM was the highest concentration analyzed
Description: (§1) Exemplary compounds were tested for ability to inhibit Rho-associated protein kinase isoform 1 (ROCK1) and Rho-associated protein kinase isoform 2 (ROCK2). Assay procedures and results are described below.
(§2) Protein constructs were purified from a baculovirus expression system. The peptide substrate was fluorescent LANCE® Ultra ULight-CREBtide: […] (PerkinElmer, # TRF0107-D). […] After a 90 minute incubation at room temperature on a shaker table, the kinase reaction was stopped by addition of 10 mM EDTA, and phosphorylation of the substrate was detected by adding 1 nM LANCE® Ultra Europium-anti-phospho-CREB (ser133) antibody (PerkinElmer, # TRF0200-D) and incubating for 60 minutes on a shaker at room temperature. The flurorescence resonance energy transfer (FRET) signals were read and analyzed on an Envision™ 2103 Multilabel Reader (Perkin Elmer).

[2] = molecular target: GST-tagged human ROCK2 catalytic domain 1-553 (Homo sapiens (Human), UniProt O75116); experiment: Inhibition of Rho-associated protein kinase isoform 2 (LANCE Ultra ULight-CREBtide FRET kinase assay); assay type: biochemical; conditions: for IC50: 30 μM was the highest concentration analyzed; for Selectivity for ROCK2 over ROCK1 (IC50 ROCK1 / IC50 ROCK2): selectivity ROCK2 vs ROCK1
Description: as §1, §2

GST-tagged human ROCK1 catalytic domain 1-477, sequence (Q13464 1-477): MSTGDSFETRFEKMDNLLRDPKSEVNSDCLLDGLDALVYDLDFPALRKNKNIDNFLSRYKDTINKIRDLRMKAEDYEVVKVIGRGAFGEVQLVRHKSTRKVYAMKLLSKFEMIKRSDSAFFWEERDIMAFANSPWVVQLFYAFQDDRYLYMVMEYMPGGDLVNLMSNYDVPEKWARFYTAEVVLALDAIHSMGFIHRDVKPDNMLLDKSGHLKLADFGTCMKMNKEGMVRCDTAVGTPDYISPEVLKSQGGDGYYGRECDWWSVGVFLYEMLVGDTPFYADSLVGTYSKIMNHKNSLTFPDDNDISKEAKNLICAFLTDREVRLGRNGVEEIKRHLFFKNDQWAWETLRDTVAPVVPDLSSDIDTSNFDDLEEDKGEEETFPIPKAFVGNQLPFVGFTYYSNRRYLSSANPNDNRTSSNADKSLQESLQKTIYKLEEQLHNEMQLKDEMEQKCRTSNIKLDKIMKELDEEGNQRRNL
GST-tagged human ROCK2 catalytic domain 1-553, sequence (O75116 1-553): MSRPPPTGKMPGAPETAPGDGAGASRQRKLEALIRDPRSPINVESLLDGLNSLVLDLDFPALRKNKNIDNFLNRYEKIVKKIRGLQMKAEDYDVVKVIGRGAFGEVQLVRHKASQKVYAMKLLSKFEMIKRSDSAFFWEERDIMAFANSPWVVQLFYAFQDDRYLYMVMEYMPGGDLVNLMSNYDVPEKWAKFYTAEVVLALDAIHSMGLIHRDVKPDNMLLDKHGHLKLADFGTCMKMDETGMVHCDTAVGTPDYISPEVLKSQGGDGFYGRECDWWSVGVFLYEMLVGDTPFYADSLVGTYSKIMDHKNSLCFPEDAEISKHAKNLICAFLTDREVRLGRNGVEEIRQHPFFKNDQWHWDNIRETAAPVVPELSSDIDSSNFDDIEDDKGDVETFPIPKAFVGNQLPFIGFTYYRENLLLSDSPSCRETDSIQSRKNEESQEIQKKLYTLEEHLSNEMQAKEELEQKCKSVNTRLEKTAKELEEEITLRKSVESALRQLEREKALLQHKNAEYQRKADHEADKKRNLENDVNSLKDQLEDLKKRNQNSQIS

Structure (SMILES) | IC50 [1] [µM] | IC50 [2] [µM] | Selectivity for ROCK2 over ROCK1 (IC50 ROCK1 / IC50 ROCK2) [2]
NC(Cc1ccc(Cl)cc1)C(=O)Nc1cccc(-c2nnc(Nc3ccc4[nH]ncc4c3Cl)s2)c1 (stereo not shown) [Example 35BF] | 1 to 15 | < 1 | >5
CCc1cn2cccc(-c3nnc(Nc4ccc5[nH]nc(C)c5c4)s3)c2n1 [Example 50A] | 1 to 15 | < 1 | >5
Nc1cccc(-c2nsc(Nc3ccc4[nH]ncc4c3)n2)c1 [Example 35CU] | > 30 | 1 to 15 | >5
O=C(Cc1cnccn1)Nc1cccc(-c2nnc(Nc3ccc4[nH]ncc4c3Cl)s2)c1 [Example 35BP] | < 1 | < 1 | >5
COCCn1ccnc1-c1cccc(-c2nnc(Nc3ccc4[nH]ncc4c3Cl)s2)c1.O=C(O)C(F)(F)F [Example 44, N-(4-Chloro-1H-indazol-5-yl)-5-(3-(1-(2-methoxyethyl)-1H-imidazol-2-yl)phenyl)-1,3,4-thiadiazol-2-amine 2,2,2-trifluoroacetic Acid Solvate] | < 1 | < 1 | >5
CC1CCCCC1C(=O)Nc1cccc(-c2nnc(Nc3ccc4[nH]ncc4c3Cl)s2)c1 (stereo not shown) [Example 35H] | 1 to 15 | < 1 | >5
Cc1ccc(CC(=O)Nc2cccc(-c3nnc(Nc4ccc5[nH]ncc5c4Cl)s3)c2)nc1 [Example 35AO] | > 30 | < 1 | >100
CC(=O)Nc1cccc(-c2nnc(Nc3ccc4[nH]ncc4c3C(F)(F)F)s2)c1 [Example 35AL] | 1 to 15 | < 1 | >5
CC(=O)Nc1cc(CO)cc(-c2nnc(Nc3ccc4[nH]ncc4c3Cl)s2)c1 [Example 48H] | < 1 | < 1 | >50
Clc1c(Nc2nnc(-c3cccc(-c4ncco4)c3)s2)ccc2[nH]ncc12 [Example 46O] | > 30 | < 1 | >100
O=C(Nc1cccc(-c2nnc(Nc3ccc4[nH]ncc4c3Cl)s2)c1)N1CCNCC1 [Example 35T] | < 1 | < 1 | >5
Fc1cc(-c2ncco2)cc(-c2nnc(Nc3ccc4[nH]ncc4c3Cl)s2)c1 [Example 46J] | > 30 | < 1 | >100
N[C@@H](Cc1ccccc1)C(=O)Nc1cccc(-c2nnc(Nc3ccc4[nH]ncc4c3Cl)s2)c1 [Example 35AV] | 1 to 15 | < 1 | >5
Nc1cccc(-c2nnc(Nc3ccc4[nH]ncc4c3)s2)n1.O=C(O)C(F)(F)F [Example 35CR] | > 30 | < 1 | >5
Clc1c(Nc2nnc(-c3cccc(-c4nnn[nH]4)c3)s2)ccc2[nH]ncc12 [Example 41D] | < 1 | < 1 | >50
COc1ncc(C(=O)Nc2cccc(-c3nnc(Nc4ccc5[nH]ncc5c4Cl)s3)c2)cn1.O=C(O)C(F)(F)F [Example 35AU] | > 30 | < 1 | >100
Cn1cc(C(=O)Nc2cncc(-c3nnc(Nc4ccc5[nH]ncc5c4Cl)s3)c2)cn1 [Example 35BU] | < 1 | < 1 | >5
O=C(Nc1cc(-c2nnc(Nc3ccc4[nH]ncc4c3Cl)s2)ccn1)N1CCOCC1 [Example 35A] | < 1 | < 1 | >5
NCc1cncc(C(=O)Nc2cccc(-c3nnc(Nc4ccc5[nH]ncc5c4)s3)c2)c1.O=C(O)C(F)(F)F [Example 35CF] | 1 to 15 | < 1 | >5
c1cc(-c2nnc(Nc3ccc4[nH]ncc4c3)s2)c2nccn2c1 [Example 49, 5-Imidazo[1,2-a]pyridin-8-yl-N-(1H-indazol-5-yl)-1,3,4-thiadiazol-2-amine 2,2,2-trifluoroacetic Acid Solvate] | < 1 | < 1 | >5

The next lines start with the values.

IC50 [1] [µM] | IC50 [2] [µM] | Selectivity for ROCK2 over ROCK1 (IC50 ROCK1 / IC50 ROCK2) [2] | Structure (SMILES)
< 1 | < 1 | >5 | CCc1cn2cccc(-c3nnc(Nc4ccc5[nH]ncc5c4Cl)s3)c2n1 [Example 52D]
1 to 15 | 1 to 15 | <5 | c1cc2[nH]ncc2cc1Nc1nnc(N2CCNCC2)s1 [Example A-48]
> 30 | > 30 | <5 | Cn1cc(C(=O)Nc2ccc(-c3nnc(Nc4ccc5[nH]ncc5c4)s3)cc2)cn1 [Example A-27]
1 to 15 | 1 to 15 | <5 | CS(=O)(=O)Nc1cncc(-c2nnc(Nc3ccc4[nH]ncc4c3)s2)c1 [Example A-18]
> 30 | < 1 | >100 | c1cc(-c2ncco2)cc(-c2nnc(Nc3ccc4[nH]ncc4c3)s2)c1 [Example A-30]
< 1 | < 1 | <5 | Cc1cccc(CNC(=O)c2cccc(-c3nnc(Nc4ccc5[nH]ncc5c4Cl)s3)c2)n1 [Example 75G]
< 1 | < 1 | >5 | Cn1ccc(C(=O)Nc2cccc(-c3nnc(Nc4ccc5[nH]ncc5c4)s3)c2)n1 [Example A-42]
> 30 | 1 to 15 | >5 | Nc1cccc(-c2nnc(Nc3ccc4[nH]ncc4c3)s2)c1 [Example A-47]
> 30 | < 1 | >50 | O=C1Cc2cccc(-c3nnc(Nc4ccc5[nH]ncc5c4Cl)s3)c2N1 [Example 56E]
> 30 | < 1 | >100 | Cc1cnoc1C(=O)Nc1cccc(-c2nnc(Nc3ccc4[nH]ncc4c3)s2)c1 [Example A-44]
15 to 30 | 15 to 30 | <5 | COc1cccc(-c2nnc(N(CCO)c3ccc4[nH]ncc4c3)s2)c1 [Example A-21]
> 30 | < 1 | >100 | Cn1c(C2CC2)nc2c(-c3nnc(Nc4ccc5[nH]ncc5c4)s3)cccc21 [Example 56G]
< 1 | < 1 | >5 | CC1CCN(C(=O)Nc2cccc(-c3nnc(Nc4ccc5[nH]ncc5c4)s3)c2)C1 (stereo not shown) [Example A-28]
> 30 | > 30 | – | Cn1cc(C(=O)Nc2cccc(-c3nnc(Nc4ccc5[nH]nc(Cl)c5c4)s3)c2)cn1 [Example 75J]
1 to 15 | 1 to 15 | <5 | O=C(NCC(O)CO)c1cccc(-c2nnc(Nc3ccc4[nH]ncc4c3)s2)c1 (stereo not shown) [Example A-4]
15 to 30 | 1 to 15 | <5 | CN(CC(O)CO)C(=O)c1cccc(-c2nnc(Nc3ccc4[nH]ncc4c3)s2)c1 (stereo not shown) [Example A-10]
< 1 | < 1 | >5 | CN1CCN(C(=O)Nc2ccc(-c3nnc(Nc4ccc5[nH]ncc5c4Cl)s3)cc2)CC1 [Example 75D]
1 to 15 | 1 to 15 | – | O=[N+]([O-])c1cccc(-c2nnc(Nc3ccc4[nH]ncc4c3)s2)c1 [Example 75O]
1 to 15 | < 1 | <5 | CN(C)CC(=O)Nc1cncc(-c2nnc(Nc3ccc4[nH]ncc4c3)s2)c1 [Example A-3]
